Results reported in PMC11696749, “Deep Multitask Learning-Driven Discovery of New Compounds Targeting Leishmania infantum” (ACS Omega, 2024).
Where two headings read alike, the source gives them in different places.

Assays:
[1] = tested on: L. infantum (MHOM/BR/2002/LPC-RPV) promastigotes; test: In vitro antileishmanial activity against promastigotes (resazurin); assay type: cell-based, Leishmania infantum; details: 48 h at 28 °C, three independent experiments
Protocol: (§1) L. infantum (MHOM/BR/2002/LPC-RPV) promastigotes were maintained in Schneider’s medium supplemented with 10% (v/v) fetal bovine serum (FBS, Gibco) and 100 U/mL penicillin and 100 μg/mL streptomycin at 28 °C. MRC-5 human primary fetal lung fibroblast cells were maintained in RPMI 1640 medium supplemented with 10% heat-inactivated fetal calf serum (FCS) and 25 mM HEPES under a 5% CO2 atmosphere at 37 °C and pH 7.4.
To evaluate the effect of prioritized compounds on parasite viability, 4 × 10^6 promastigotes/mL were incubated in the presence of a series of 11 points from 200–0.195 or 50–0.04 μM plus control (0.1% DMSO) for 48 h at 28 °C to a final volume of 200 μL in 96-well microplate. Next, 20 μL of resazurin solution (0.39 mM) was added to each well and incubated for 4 h, and then fluorescence was recorded (570 nmex/595 nmem) on a microplate reader SpectraMax M5 (Molecular Devices, Sunnyvale, CA). The IC50 from three independent experiments was calculated from the dose–response curve fitted in a four-parameter logistic, nonlinear regression model using GraphPad Prism software (CA) v.8.

[2] = In vitro cytotoxicity test on MRC-5 cells (resazurin); assay type: cell-based, human; details: human, MRC-5 primary fetal lung fibroblast cells, pH 7.4, MRC-5 cells, 72 h incubation, resazurin; two independent experiments
Protocol: as §1
(§2) MRC-5 cells were seeded in 96-well plates at a density of 1 × 10^4 cells/well using 100 μL of medium. After 24 h, compounds were serially diluted in another set of 96-well plates starting from a concentration of 250 μM (11 dilution points plus the control), using 100 μL of complete culture medium per well. Subsequently, 100 μL of these diluted compounds were transferred to the seeded cells. Amphotericin B (Sigma-Aldrich) dissolved in DMSO was used as a control and diluted from an initial concentration of 0.5 μM. After 72 h of incubation, resazurin was added to a final concentration of 45 μM and incubated for 4 h before measuring fluorescence.

L. donovani [3] = tested on: L. donovani; set-up: method as in ref 44 (Khare et al.); details: Figure 10; ref 44 (Khare et al.); cited from earlier work
3T3 = tested on: 3T3; set-up: method as in ref 44 (Khare et al.); details: Figure 10; ref 44 (Khare et al.); cited from earlier work
macrophage = tested on: macrophage; set-up: method as in ref 44 (Khare et al.); details: Figure 10; ref 44 (Khare et al.); cited from earlier work
[4] = tested on: MRC-5 human primary fetal lung fibroblast cells; test: In vitro cytotoxicity test on MRC-5 cells (resazurin); assay type: cell-based; details: for SI (selectivity index): ratio of CC50 (MRC-5) to IC50 (L. infantum)
Protocol: as §1, §2

L. donovani [5] = tested on: L. donovani; set-up: method as in ref 45 (Wyllie et al.); details: Figure 10; ref 45 (Wyllie et al.); cited from earlier work
THP-1 = tested on: THP-1; set-up: method as in ref 45 (Wyllie et al.); details: Figure 10; ref 45 (Wyllie et al.); cited from earlier work

C[C@@H]1[C@H](O)[C@@H](C)/C=C/C=C/C=C/C=C/C=C/C=C/C=C/[C@H](O[C@@H]2O[C@H](C)[C@@H](O)[C@H](N)[C@@H]2O)C[C@@H]2O[C@](O)(C[C@@H](O)C[C@@H](O)[C@H](O)CC[C@@H](O)C[C@@H](O)CC(=O)O[C@H]1C)C[C@H](O)[C@H]2C(=O)O [Amphotericin B, reference compound]
IC50 ([1]; Leishmania infantum, 48 h): 0.079 ± 0.001 µM | CC50 at 72 h [2]: > 0.67 µM

CC(C)OC(=O)Nc1cnc2nc(-c3cc(NC(=O)c4ccco4)ccc3Cl)cn2c1 [GNF2636]
IC50 (L. donovani [3]): 0.35 µM | CC50 (3T3): 3.5 µM | CC50 (macrophage): 14.1 µM

Cc1nc(C)c(C(=O)Nc2ccc(F)c(-c3nc4ncc(-c5ccccc5)cn4n3)c2)o1 [GNF3849]
IC50 (L. donovani [3]): 0.071 µM

Cc1nc(C)c(C(=O)Nc2ccc(F)c(-c3nc4ncc(-c5ccccn5)cn4n3)c2)o1 [GNF6702]
IC50 (L. donovani [3]): 0.0018 µM

O=C(Nc1ccc(Cl)c(-c2nc3ncccc3o2)c1)c1cccs1 [LC-15]
IC50 [1]: 1.05 ± 0.37 µM | IC50 ([1]; Leishmania infantum, 48 h): 1.5 µM | CC50 at 72 h [2]: > 32.4 µM | CC50 ([4]; MRC-5 cells, 72 h incubation, resazurin, two independent experiments): 32.4 ± 8.31 µM | SI (selectivity index) [4]: 30.9

Cc1cc(NCc2ccncc2C)nc(N2CCCCC2)n1 [LC-20]
IC50 ([1]; Leishmania infantum, 48 h): > 100 µM

Cc1nc2ccc(Cl)cn2c1C(=O)N1CCCC1c1ccccn1 (centres unmarked) [LC-25]
IC50 ([1]; Leishmania infantum, 48 h): > 100 µM

CN1CCC(Nc2nccc(-c3ccccn3)n2)C(Cc2ccccc2)C1 (centres unmarked) [LC-26]
IC50 ([1]; Leishmania infantum, 48 h): 11.9 ± 1.7 µM | CC50 at 72 h [2]: 48.4 ± 16.9 µM

Cc1nc(O)cc(C2CCN(c3nccc(-c4ccccn4)n3)CC2)n1 [LC-27]
IC50 ([1]; Leishmania infantum, 48 h): > 100 µM

Fc1ccc(OCc2nc3cc(Cl)ccc3[nH]2)cc1 [LC-31]
IC50 ([1]; Leishmania infantum, 48 h): 4.51 ± 2.25 µM | CC50 at 72 h [2]: 40.7 ± 4.33 µM | SI (selectivity index) [4]: 9.04

Cc1cc(C)nc(-n2nc(C)c3c2NC(=O)CC3c2ccc3c(c2)OCO3)n1 (centres unmarked) [LC-35]
IC50 ([1]; Leishmania infantum, 48 h): 17.1 ± 2.89 µM | CC50 at 72 h [2]: 145 ± 21.8 µM | SI (selectivity index) [4]: 8.47

O=C(Nc1cccnc1Cl)c1cc(-c2ccc3c(c2)OCO3)on1 [LC-36]
IC50 ([1]; Leishmania infantum, 48 h): > 100 µM

Cc1ccc(C2CC(=O)Nc3c2c(C)nn3-c2nc(C)cc(C)n2)cc1 (centres unmarked) [LC-37]
IC50 ([1]; Leishmania infantum, 48 h): 15.6 ± 2.36 µM | CC50 at 72 h [2]: > 250 µM | SI (selectivity index) [4]: >15.9

CC(=O)Nc1ccc(S(=O)(=O)Nc2cc(C)nn2-c2ccccn2)cc1 [LC-38]
IC50 ([1]; Leishmania infantum, 48 h): > 100 µM

O=C(Nc1ccc(F)c(-c2cn3cc(-c4ccccc4)cnc3n2)c1)N1CCCC1 [compound 6]
IC50 (L. donovani [5]): 0.15 µM | CC50 (THP-1): > 50 µM

O=C(Nc1ccc(F)c(-c2cn3nc(-c4ccccc4)cnc3n2)c1)N1CCCC1 [compound 7]
IC50 (L. donovani [5]): 0.35 µM | CC50 (THP-1): > 50 µM
